Values quoted from earlier work in PMC7579232 (Current Clinical Pharmacology, 2020).

Experiments:
[1] = rats
[2] = rabbits

In the case of `C=CC[C@@H]1/C=C(\C)C[C@H](C)C[C@H](OC)[C@H]2O[C@@](O)(C(=O)C(=O)N3CCCC[C@H]3C(=O)O[C@H](/C(C)=C/[C@@H]3CC[C@@H](O)[C@H](OC)C3)[C@H](C)[C@@H](O)CC1=O)[C@H](C)C[C@@H]2OC` [tacrolimus], the “Effect of co-administered pomegranate dietary products on drug concentration” value (a heart transplant patient) is given as “increased”.

In the case of `NC(=O)N1c2ccccc2C=Cc2ccccc21` [carbamazepine], the “Effect of pomegranate juice on elimination half-life” value [1] is given as “does not affect” and the “Increase of AUC by pomegranate juice” value ([1]; oral carbamazepine with pomegranate juice) is given as “approximately 1.5 fold”.

For `Cc1ncc2n1-c1ccc(Cl)cc1C(c1ccccc1F)=NC2` [midazolam], the “Effect of pomegranate juice on Cmax and AUC” value (oral midazolam, healthy volunteers) is listed as “did not affect”.

In the case of `CCOC(=O)C1=C(C)NC(C)=C(C(=O)OC)C1c1cccc([N+](=O)[O-])c1` (stereo not drawn) [nitrendipine], the “Increase of area under the concentration-time curve by pomegranate juice” value [2] is given as 2.03 fold and the “Increase of peak plasma concentration by pomegranate juice” value [2] is given as 2 fold.
